Here are results for 21 molecules from US11339171B2, “MDM2 inhibitors” (Gan & Lee Pharmaceuticals, priority 2017, dated 2022).

Experiment [1] deals with human osteosarcoma cell line SJSA-1. Briefly: Inhibition of proliferation of human osteosarcoma cell line SJSA-1 (DAPI staining, In Cell Analyzer).
For another experiment, the target named is T1, MDM2 (Homo sapiens, UniProt Q00987).
T1 construct: made in house
Briefly: Inhibition test of MDM2-P53 (GST-MDM2, Biotin-P53, Anti-GST-Tb, SA-XL665). In kind it is binding. The essentials:
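Compounds, serially diluted 5-fold (twelve concentrations), were shaken for 90 min at 25° C with a mix of GST-MDM2 (4 nM final), Biotin-P53, anti-GST-Tb and SA-XL665. Buffer: 1×PBS, 0.1% BSA, 5 mM DTT, 1 mM AEBSF; signal read on a microplate reader.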

The mark [2] stands for this setting: Homo sapiens, SJSA-1, 72 h, read-out: IC50 (nM), inhibitory activity on proliferation of human osteosarcoma cell line SJSA-1, SJSA-1, incubated 72 h.
The mark [3] stands for this setting: labels are Example numbers, the compounds with S-configuration are meant.

Where two headings read alike, the source gives them in different places.

T1 sequence (Q00987 whole entry): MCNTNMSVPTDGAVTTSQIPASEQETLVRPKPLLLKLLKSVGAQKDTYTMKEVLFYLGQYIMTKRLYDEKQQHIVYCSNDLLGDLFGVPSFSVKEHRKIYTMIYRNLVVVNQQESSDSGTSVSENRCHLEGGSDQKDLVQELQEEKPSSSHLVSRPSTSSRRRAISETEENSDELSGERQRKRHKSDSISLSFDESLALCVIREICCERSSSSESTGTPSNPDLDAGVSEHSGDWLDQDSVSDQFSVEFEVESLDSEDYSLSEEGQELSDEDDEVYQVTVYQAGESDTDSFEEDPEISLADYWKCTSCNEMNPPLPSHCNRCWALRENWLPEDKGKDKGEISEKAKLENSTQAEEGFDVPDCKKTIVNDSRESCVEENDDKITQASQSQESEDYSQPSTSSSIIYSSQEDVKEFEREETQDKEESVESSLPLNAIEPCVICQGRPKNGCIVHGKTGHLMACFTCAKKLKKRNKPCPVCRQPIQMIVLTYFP

In the case of `COc1ncc(-c2nc3c(n2C(C)C)[C@@]2(C(=O)Nc4cc(Cl)ccc42)N(c2cccc(C)c2)C3=O)c(OC)n1` [Example S-55, (S)-6-chloro-2′-(2,4-dimethoxypyrimidin-5-yl)-3′-isopropyl-5′-(m-tolyl)-3′H-spiro[dihydroindole-3,4′-pyrrolo[3,4-d]imidazole]-2,6′(5′H)-dione], the results for the IC50 (in experiment [1] (setting [2]); against MDM2) were 117 nM and 4.25 nM, respectively.
With `COc1cc(F)ccc1-c1nc2c(n1C(C)C)[C@@]1(C(=O)Nc3cc(Cl)ccc31)N(c1cc(Cl)ccc1C)C2=O` [Example S-4, (S)-6-chloro-5′-(5-chloro-2-methylphenyl)-2′-(4-fluoro-2-methoxyphenyl)-3′-isopropyl-3′H-spiro[dihydroindole-3,4′-pyrrolo[3,4-d]imidazole]-2,6′(5′H)-dione], the figures for the IC50 (in experiment [1] (setting [2]); against MDM2) were 7.92 nM and 3.37 nM, respectively.
For `COc1cnccc1-c1nc2c(n1C(C)C)[C@@]1(C(=O)Nc3cc(Cl)ccc31)N(c1cc(Cl)ccc1C)C2=O` [Example S-10, (S)-6-chloro-5′-(5-chloro-2-methylphenyl)-3′-isopropyl-2′-(3-methoxypyridin-4-yl)-3′H-spiro[dihydroindole-3,4′-pyrrolo[3,4-d]imidazole]-2,6′(5′H)-dione], the values for the IC50 (in experiment [1] (setting [2]); against MDM2) were 124 nM and 2.77 nM, respectively.
On to `CCc1ccc(Cl)cc1N1C(=O)c2nc(-c3cnc(OC)nc3OC)n(C(C)C)c2[C@@]12C(=O)Nc1cc(Cl)ccc12` [Example S-15, (S)-6-chloro-5′-(5-chloro-2-ethylphenyl)-2′-(2,4-dimethoxypyrimidin-5-yl)-3′-isopropyl-3′H-spiro[dihydroindole-3,4′-pyrrolo[3,4-d]imidazole]-2,6′(5′H)-dione], for which the IC50 in experiment [1] (setting [2]) is 10.9 nM; on MDM2, 1.62 nM.
In the case of `COc1cc(C(=O)N(C)C)ccc1-c1nc2c(n1C(C)C)[C@@]1(C(=O)Nc3cc(Cl)ccc31)N(c1cc(Cl)ccc1C)C2=O` [Example S-68, (S)-4-(6-chloro-5′-(5-chloro-2-methylphenyl)-3′-isopropyl-2,6′-dioxo-5′,6′-dihydro-3′H-spiro[dihydroindole-3,4′-pyrrolo[3,4-d]imidazole]-2′-yl)-3-methoxy-N,N-dimethylbenzamide], the IC50 was determined as 1700 nM in experiment [1] (setting [2]) and 2.32 nM on MDM2.
For the molecule `COc1cccc(F)c1-c1nc2c(n1C(C)C)[C@@]1(C(=O)Nc3cc(Cl)ccc31)N(c1cc(Cl)ccc1C)C2=O` [Example S-57, (S)-6-chloro-5′-(5-chloro-2-methylphenyl)-2′-(2-fluoro-6-methoxyphenyl)-3′-isopropyl-3′H-spiro[dihydroindole-3,4′-pyrrolo[3,4-d]imidazole]-2,6′(5′H)-dione], the figures for the IC50 (in experiment [1] (setting [2]); on MDM2) were 11.8 nM and 3.04 nM, respectively.
Take `COc1nc(C)ncc1-c1nc2c(n1C(C)C)[C@@]1(C(=O)Nc3cc(Cl)ccc31)N(c1cc(Cl)ccc1C)C2=O` [Example S-118, (S)-6-chloro-5′-(5-chloro-2-methylphenyl)-3′-isopropyl-2′-(4-methoxy-2-methylpyrimidin-5-yl)-3′H-spiro[dihydroindole-3,4′-pyrrolo[3,4-d]imidazole]-2,6′(5′H)-dione]: the IC50 in experiment [1] (setting [2]) amounted to 107 nM; against MDM2 it was 3.51 nM.
On to `CCc1ccc(-c2nc3c(n2C(C)C)[C@]2(C(=O)Nc4cc(Cl)ccc42)N(c2cccc(Cl)c2)C3=O)c(OC)c1` [Example R-107, (R)-6-chloro-5′-(3-chlorophenyl)-2′-(4-ethyl-2-methoxyphenyl)-3′-isopropyl-3′H-spiro[dihydroindole-3,4′-pyrrolo[3,4-d]imidazole]-2,6′(5′H)-dione], for which the IC50 in experiment [1] (setting [2]) turned out to be 3240 nM; on MDM2, 536 nM.
Turning to `CCc1ccc(-c2nc3c(n2C(C)C)[C@@]2(C(=O)Nc4cc(Cl)ccc42)N(c2cc(Cl)ccc2C)C3=O)c(OC)c1` [Example S-33, (S)-6-chloro-5′-(5-chloro-2-methylphenyl)-2′-(4-ethyl-2-methoxyphenyl)-3′-isopropyl-3′H-spiro[dihydroindole-3,4′-pyrrolo[3,4-d]imidazole]-2,6′(5′H)-dione], the IC50 in experiment [1] (setting [2]) came out at 9.7 nM; against MDM2, 2.47 nM.
For the molecule `COc1cc(C(C)C)ncc1-c1nc2c(n1C(C)C)C1(C(=O)Nc3cc(Cl)ccc31)N(c1cc(Cl)ccc1C)C2=O` (stereo not shown) [Example 164, 6-chloro-5′-(5-chloro-2-methylphenyl)-3′-isopropyl-2′-(6-isopropyl-4-methoxypyridin-3-yl)-3′H-spiro[dihydroindole-3,4′-pyrrolo[3,4-d]imidazole]-2,6′(5′H)-dione], the “inhibitory effect on human osteosarcoma cell line SJSA-1 compared with positive control compound HDM201” value in experiment [1] (setting [3]) is on record as “better”. In addition, the “inhibitory effect on MDM2 compared with positive control compound HDM201” value on MDM2 (setting [3]) is “better”.
Turning to `COc1cc(Cl)cc(N2C(=O)c3nc(-c4cnc(OC)nc4OC)n(C(C)C)c3[C@]23C(=O)Nc2cc(Cl)ccc23)c1` [Example R-58, (R)-6-chloro-5′-(3-chloro-5-methoxyphenyl)-2′-(2,4-dimethoxypyrimidin-5-yl)-3′-isopropyl-3′H-spiro[dihydroindole-3,4′-pyrrolo[3,4-d]imidazole]-2,6′(5′H)-dione], the IC50 in experiment [1] (setting [2]) was 5890 nM; on MDM2, 1430 nM.
For the molecule `COc1ccc(-c2nc3c(n2C(C)C)[C@@]2(C(=O)Nc4cc(Cl)ccc42)N(c2cc(Cl)c(=O)n(C)c2)C3=O)c(OC)c1` [Example S-52, (S)-6-chloro-5′-(5-chloro-1-methyl-6-oxo-1,6-dihydropyridin-3-yl)-2′-(2,4-dimethoxyphenyl)-3′-isopropyl-3′H-spiro[dihydroindole-3,4′-pyrrolo[3,4-d]imidazole]-2,6′(5′H)-dione], the values for the IC50 (in experiment [1] (setting [2]); against MDM2) were 467 nM and 0.87 nM, respectively.
For `COc1ncc(-c2nc3c(n2C(C)C)[C@]2(C(=O)Nc4cc(Cl)ccc42)N(c2cccc(Cl)c2)C3=O)c(OC)n1` [Example R-1, (R)-6-chloro-5′-(3-chlorophenyl)-2′-(2,4-dimethoxypyrimidin-5-yl)-3′-isopropyl-3′H-spiro[dihydroindole-3,4′-pyrrolo[3,4-d]imidazole]-2,6′(5′H)-dione], the values for the IC50 (in experiment [1] (setting [2]); against MDM2) were 16700 nM and 618 nM, respectively.
The like results for `COc1cccc(OC)c1-c1nc2c(n1C(C)C)[C@@]1(C(=O)Nc3cc(Cl)ccc31)N(c1cc(Cl)ccc1C)C2=O` [Example S-79, (S)-6-chloro-5′-(5-chloro-2-methylphenyl)-2′-(2,6-dimethoxyphenyl)-3′-isopropyl-3′H-spiro[dihydroindole-3,4′-pyrrolo[3,4-d]imidazole]-2,6′(5′H)-dione] were, in that order, 72.4 nM and 1.89 nM.
In the case of `COc1ncc(-c2cc3c(n2C(C)C)[C@@]2(C(=O)Nc4cc(Cl)ccc42)N(c2cc(Cl)ccc2C)C3=O)c(OC)n1` [Example S-50, (S)-6-chloro-5′-(5-chloro-2-methylphenyl)-2′-(2,4-dimethoxypyrimidin-5-yl)-1′-isopropyl-1′H-spiro[dihydroindole-3,6′-pyrrolo[3,4-b]pyrrole]-2,4′(5′H)-dione], the IC50 in experiment [1] (setting [2]) came to 1320 nM; at MDM2, 85.5 nM.
Regarding `COc1nc(N)ncc1-c1nc2c(n1C(C)C)[C@@]1(C(=O)Nc3cc(Cl)ccc31)N(c1cc(Cl)ccc1C)C2=O` [Example S-90, (S)-2′-(2-amino-4-methoxypyrimidin-5-yl)-6-chloro-5′-(5-chloro-2-methylphenyl)-3′-isopropyl-3′H-spiro[dihydroindole-3,4′-pyrrolo[3,4-d]imidazole]-2,6′(5′H)-dione], the IC50 in experiment [1] (setting [2]) came to 255 nM; against MDM2, 1.38 nM.
On to `COc1ccc(-c2nc3c(n2C(C)C)[C@]2(C(=O)Nc4cc(Cl)ccc42)N(c2cc(Cl)cnc2C)C3=O)c(OC)c1` [Example R-61, (R)-6-chloro-5′-(5-chloro-2-methylpyridin-3-yl)-2′-(2,4-dimethoxyphenyl)-3′-isopropyl-3′H-spiro[dihydroindole-3,4′-pyrrolo[3,4-d]imidazole]-2,6′(5′H)-dione], for which the IC50 (in experiment [1] (setting [2]); against MDM2) was 136 nM in each case.
Take `COc1ccccc1-c1nc2c(n1C(C)C)[C@@]1(C(=O)Nc3cc(Cl)ccc31)N(c1cc(Cl)ccc1C)C2=O` [Example S-5, (S)-6-chloro-5′-(5-chloro-2-methylphenyl)-3′-isopropyl-2′-(2-methoxyphenyl)-3′H-spiro[dihydroindole-3,4′-pyrrolo[3,4-d]imidazole]-2,6′(5′H)-dione]: the results for the IC50 (in experiment [1] (setting [2]); at MDM2) were 25.4 nM and 3.22 nM, respectively.
The like results for `COc1ncc(-c2nc3c(n2C(C)C)[C@]2(C(=O)Nc4cc(Cl)ccc42)N(c2cc(F)cc(Cl)c2)C3=O)c(OC)n1` [Example R-45, (R)-6-chloro-5′-(3-chloro-5-fluorophenyl)-2′-(2,4-dimethoxypyrimidin-5-yl)-3′-isopropyl-3′H-spiro[dihydroindole-3,4′-pyrrolo[3,4-d]imidazole]-2,6′(5′H)-dione] were, in that order, 4310 nM and 171 nM.
Consider `COc1ncc(-c2nc3c(n2C(C)C)[C@]2(C(=O)Nc4cc(Cl)ccc42)N(c2cc(Cl)ccc2OC)C3=O)c(OC)n1` [Example R-17, (R)-6-chloro-5′-(5-chloro-2-methoxyphenyl)-2′-(2,4-dimethoxypyrimidin-5-yl)-3′-isopropyl-3′H-spiro[dihydroindole-3,4′-pyrrolo[3,4-d]imidazole]-2,6′(5′H)-dione], for which the IC50 in experiment [1] (setting [2]) stood at 1310 nM; in experiment [1] (read-out: IC50 (nM), inhibitory activity on proliferation of human osteosarcoma cell line SJSA-1, SJSA-1, incubated 72 h), 2440 nM; against MDM2 it was 49.4 nM.
Take `COc1ccc(-c2nc3c(n2C(C)C)[C@]2(C(=O)Nc4cc(Cl)ccc42)N(c2cc(Cl)c(=O)n(C)c2)C3=O)c(OC)c1` [Example R-52, (R)-6-chloro-5′-(5-chloro-1-methyl-6-oxo-1,6-dihydropyridin-3-yl)-2′-(2,4-dimethoxyphenyl)-3′-isopropyl-3′H-spiro[dihydroindole-3,4′-pyrrolo[3,4-d]imidazole]-2,6′(5′H)-dione]: the figures for the IC50 (in experiment [1] (setting [2]); against MDM2) were 22400 nM and 540 nM, respectively.
